Series [1] deals with Liver microsome. Put plainly: Intrinsic clearance in rat liver microsomes. The format is ADME. A general note: Liver microsomes are a subcellular fraction often used to study metabolism.
Series [2] has as its system Rattus norvegicus. Nature of the series: Reversal of RAMH-induced dipsogenia in Lister Hooded rat at 3 mg/kg, po. It is filed as functional.
Series [3] has as its system Liver microsome. Nature of the series: Intrinsic clearance in human liver microsomes. The format is ADME.
Series [4] concerns the target Histamine H3 receptor (Homo sapiens, UniProt Q9Y5N1). Put plainly: Antagonist activity at human histamine H3 receptor expressed in CHOK1 cells assessed as inhibition of GTPgammaS binding by scintillation proximity assay. The format is functional, cell-based, CHO-K1.
A further series has as its target Histamine H1 receptor (Homo sapiens, UniProt P35367). Nature of the series: Antagonist activity at human recombinant histamine H1 receptor expressed in CHO cells assessed as inhibition of histamine-induced effect by FLIPR assay. It is filed as cell-based.
The target in the next series is Cytochrome P450 2D6 (Homo sapiens, UniProt P10635). Put plainly: Inhibition of human CYP2D6. It is filed as ADME.
Cytochrome P450 2D6, sequence (P10635 whole entry): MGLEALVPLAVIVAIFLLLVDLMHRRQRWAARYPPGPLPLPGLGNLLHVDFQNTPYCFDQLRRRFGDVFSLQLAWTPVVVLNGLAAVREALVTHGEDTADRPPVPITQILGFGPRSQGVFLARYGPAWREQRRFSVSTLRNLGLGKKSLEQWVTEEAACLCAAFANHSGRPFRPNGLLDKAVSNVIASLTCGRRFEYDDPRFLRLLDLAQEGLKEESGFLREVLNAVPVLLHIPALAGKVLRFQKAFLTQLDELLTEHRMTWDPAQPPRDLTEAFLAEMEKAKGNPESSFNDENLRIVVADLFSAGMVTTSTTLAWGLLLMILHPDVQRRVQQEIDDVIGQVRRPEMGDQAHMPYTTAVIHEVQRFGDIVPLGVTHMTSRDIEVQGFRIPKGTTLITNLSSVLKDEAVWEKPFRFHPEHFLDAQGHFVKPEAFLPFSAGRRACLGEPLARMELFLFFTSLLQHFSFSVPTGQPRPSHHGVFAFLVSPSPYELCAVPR
The test system of series [5] is Rattus norvegicus. Put plainly: Reversal of RAMH-induced dipsogenia in Lister Hooded rat at 10 mg/kg, ip. It is filed as functional. Conditions: route intraperitoneal.
The next series concerns the target Albumin (Homo sapiens, UniProt P02768). Nature of the series: Binding affinity to human serum albumin. It is filed as ADME. The conditions noted are these: isolated protein.
The nature of series [6]: Total blood clearance in iv dosed rat after 1 hr. Conditions: whole blood. The format is ADME, organism-based.
The next series addresses hERG (KCNH2) (Homo sapiens, UniProt Q12809). Put plainly: Inhibition of human ERG at 10 uM by patch clamp assay.
Series [7] can be described thus: Ratio of drug level in brain to blood in Lister Hooded rat at 3 mg/kg, po after 2 hrs. It is filed as ADME, organism-based. On the set-up: dose 3 mg/kg, route oral.
A short description of series [8]: Dissociation constant, pKa of the compound. The format is physicochemical.
A short description of series [9]: Terminal half life in iv dosed rat after 0.5 hrs. The format is ADME, organism-based. Conditions: in vivo, read-out: beta t1/2 (converted).
The nature of series [10]: Drug level in Lister Hooded rat blood at 3 mg/kg, po after 2 hrs. The format is ADME, organism-based. On the set-up: dose 3 mg/kg, route oral. Conditions: whole blood, read-out: Ct.
Series [11] is described as follows: Volume of distribution at steady state in iv dosed rat after 1 hr. It is filed as ADME, organism-based. The conditions noted are these: in vivo, read-out: Vdss.
Series [12] is described as follows: Lipophilicity, log D of the compound. The format is physicochemical. The conditions noted are these: octanol/water.
Series [13] has as its target Histamine H3 receptor (Rattus norvegicus, UniProt Q9QYN8). Nature of the series: Displacement of [3H]R-alpha-methylhistamine from histamine H3 receptor in rat cerebral cortical membranes after 45 mins by liquid scintillation spectrometry. The format is cell membranes. Background: Loss of bound radioactivity is the signal in a displacement assay; it reports binding, not function.

A short description of series [14]: Drug level in Lister Hooded rat brain at 3 mg/kg, po after 2 hrs. Conditions: read-out: Ct. Also noted: dose 3 mg/kg, route oral. The format is ADME, organism-based.
For series [15], the system named is Rattus norvegicus. Put plainly: Ex vivo binding affinity to histamine H3 receptor in po dosed Lister Hooded rat. It is filed as functional.

Histamine H1 receptor, sequence (P35367 whole entry): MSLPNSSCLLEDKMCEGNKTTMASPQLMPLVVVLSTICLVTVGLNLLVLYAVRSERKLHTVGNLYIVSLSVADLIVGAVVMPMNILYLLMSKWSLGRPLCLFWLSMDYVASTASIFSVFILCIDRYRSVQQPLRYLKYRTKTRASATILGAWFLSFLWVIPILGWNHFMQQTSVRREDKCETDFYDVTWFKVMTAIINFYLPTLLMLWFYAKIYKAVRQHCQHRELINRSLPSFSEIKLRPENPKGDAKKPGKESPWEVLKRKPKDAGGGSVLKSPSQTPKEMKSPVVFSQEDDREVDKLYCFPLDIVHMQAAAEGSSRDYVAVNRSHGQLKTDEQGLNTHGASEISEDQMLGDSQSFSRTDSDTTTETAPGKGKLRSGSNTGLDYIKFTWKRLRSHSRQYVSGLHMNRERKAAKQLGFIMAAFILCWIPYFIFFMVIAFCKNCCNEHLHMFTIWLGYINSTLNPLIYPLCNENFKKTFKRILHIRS
Histamine H3 receptor (Homo sapiens, UniProt Q9Y5N1), sequence (Q9Y5N1 whole entry): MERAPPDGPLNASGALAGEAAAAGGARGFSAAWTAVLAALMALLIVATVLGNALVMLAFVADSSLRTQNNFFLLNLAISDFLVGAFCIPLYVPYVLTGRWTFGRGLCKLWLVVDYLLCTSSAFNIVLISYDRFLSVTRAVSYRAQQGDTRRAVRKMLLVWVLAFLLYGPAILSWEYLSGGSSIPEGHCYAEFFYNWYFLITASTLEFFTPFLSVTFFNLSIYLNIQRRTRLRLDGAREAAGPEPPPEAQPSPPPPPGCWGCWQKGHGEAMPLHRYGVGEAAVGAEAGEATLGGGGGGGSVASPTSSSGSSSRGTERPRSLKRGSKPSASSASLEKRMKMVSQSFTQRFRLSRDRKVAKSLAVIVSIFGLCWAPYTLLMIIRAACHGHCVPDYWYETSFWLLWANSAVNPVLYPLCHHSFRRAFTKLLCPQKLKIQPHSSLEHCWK
Albumin, sequence (P02768 whole entry): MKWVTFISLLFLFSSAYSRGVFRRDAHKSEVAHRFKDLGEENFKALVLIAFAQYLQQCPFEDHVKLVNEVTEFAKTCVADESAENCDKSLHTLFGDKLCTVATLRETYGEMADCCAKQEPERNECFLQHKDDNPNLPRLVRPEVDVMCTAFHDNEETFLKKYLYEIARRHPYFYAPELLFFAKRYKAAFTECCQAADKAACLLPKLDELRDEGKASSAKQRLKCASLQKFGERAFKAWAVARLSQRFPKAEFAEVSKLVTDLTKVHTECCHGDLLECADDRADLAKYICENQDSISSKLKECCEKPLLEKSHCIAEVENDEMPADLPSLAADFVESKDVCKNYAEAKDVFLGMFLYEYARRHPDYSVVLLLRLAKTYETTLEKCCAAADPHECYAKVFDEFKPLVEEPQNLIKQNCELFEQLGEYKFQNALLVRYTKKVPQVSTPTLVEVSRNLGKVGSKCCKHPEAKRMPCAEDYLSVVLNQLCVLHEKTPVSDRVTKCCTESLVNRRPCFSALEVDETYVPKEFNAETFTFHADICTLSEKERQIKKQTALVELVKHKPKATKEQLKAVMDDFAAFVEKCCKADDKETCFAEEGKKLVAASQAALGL
Histamine H3 receptor (Rattus norvegicus, UniProt Q9QYN8), sequence (Q9QYN8 whole entry): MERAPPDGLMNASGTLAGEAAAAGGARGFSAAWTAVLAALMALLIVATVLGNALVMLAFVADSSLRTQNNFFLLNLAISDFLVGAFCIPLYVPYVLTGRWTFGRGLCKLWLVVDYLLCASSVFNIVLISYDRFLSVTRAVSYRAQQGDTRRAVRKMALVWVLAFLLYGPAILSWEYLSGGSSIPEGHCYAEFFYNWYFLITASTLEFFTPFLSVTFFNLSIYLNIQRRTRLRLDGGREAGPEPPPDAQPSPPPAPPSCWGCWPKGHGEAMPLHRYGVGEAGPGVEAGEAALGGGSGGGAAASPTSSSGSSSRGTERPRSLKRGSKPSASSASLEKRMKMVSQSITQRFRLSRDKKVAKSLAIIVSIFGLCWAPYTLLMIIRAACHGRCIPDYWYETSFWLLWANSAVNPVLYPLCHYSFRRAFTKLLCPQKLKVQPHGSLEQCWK
hERG (KCNH2), sequence (Q12809 whole entry): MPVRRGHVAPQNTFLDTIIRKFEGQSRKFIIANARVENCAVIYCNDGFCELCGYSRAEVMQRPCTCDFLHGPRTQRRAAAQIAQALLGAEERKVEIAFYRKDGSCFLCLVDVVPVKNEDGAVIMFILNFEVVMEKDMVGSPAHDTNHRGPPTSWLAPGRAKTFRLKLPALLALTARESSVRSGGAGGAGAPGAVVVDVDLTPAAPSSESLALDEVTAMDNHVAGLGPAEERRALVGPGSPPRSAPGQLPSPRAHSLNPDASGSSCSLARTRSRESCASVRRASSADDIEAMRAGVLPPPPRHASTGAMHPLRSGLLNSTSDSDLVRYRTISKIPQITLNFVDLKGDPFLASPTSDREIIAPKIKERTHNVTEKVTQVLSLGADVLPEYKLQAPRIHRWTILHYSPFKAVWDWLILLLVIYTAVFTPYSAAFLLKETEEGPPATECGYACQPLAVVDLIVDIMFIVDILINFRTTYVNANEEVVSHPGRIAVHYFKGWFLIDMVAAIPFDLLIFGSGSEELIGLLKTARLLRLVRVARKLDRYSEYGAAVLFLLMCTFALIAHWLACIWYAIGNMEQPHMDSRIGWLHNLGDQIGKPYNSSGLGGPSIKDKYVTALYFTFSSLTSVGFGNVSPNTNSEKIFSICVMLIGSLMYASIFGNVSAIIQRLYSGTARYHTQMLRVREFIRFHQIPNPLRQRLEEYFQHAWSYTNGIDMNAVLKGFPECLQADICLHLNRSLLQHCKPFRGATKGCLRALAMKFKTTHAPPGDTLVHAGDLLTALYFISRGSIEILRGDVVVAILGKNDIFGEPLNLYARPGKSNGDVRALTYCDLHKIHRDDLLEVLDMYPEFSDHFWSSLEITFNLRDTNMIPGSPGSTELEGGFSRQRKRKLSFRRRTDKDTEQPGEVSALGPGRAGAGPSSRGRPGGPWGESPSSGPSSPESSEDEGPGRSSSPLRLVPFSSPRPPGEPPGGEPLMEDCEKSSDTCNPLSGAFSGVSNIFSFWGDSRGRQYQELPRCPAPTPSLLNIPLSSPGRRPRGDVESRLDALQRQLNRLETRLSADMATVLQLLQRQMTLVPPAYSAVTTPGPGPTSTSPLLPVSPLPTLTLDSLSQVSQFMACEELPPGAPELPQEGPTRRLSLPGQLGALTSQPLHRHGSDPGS

For `O=C(c1ccc(Cl)cc1)N1CCC(Oc2ccc3c(c2)CCN(C2CCC2)CC3)CC1`, the CLH in the series with Liver microsome [1] was 2.9 mL/min/g; in the series on Liver microsome [3] it was 0.8 mL/min/g. In addition, the Activity with Rattus norvegicus [2] stood at 89%. Besides, the Ki on Histamine H3 receptor [4] was 0.501 nM.

With `c1cc2c(cc1OCCN1CCCCC1)CCN(CC1CC1)CC2`, the Ki at Histamine H1 receptor was over 2000 nM; on Histamine H3 receptor [4] it was 0.794 nM.

On to `OC1CCN(CCCOc2ccc3c(c2)CCNCC3)CC1`, for which the Ki at Histamine H3 receptor [4] is over 10000 nM.

As to `c1ccc(COc2ccc3c(c2)CCN(Cc2ccccc2)CC3)cc1`, at Histamine H3 receptor [4], the Ki is over 1000 nM.

Turning to `c1ccc(COc2ccc3c(c2)CCN(C2CCC2)CC3)cc1`, the CLH was over 50 mL/min/g in the series with Liver microsome [1] and 12 mL/min/g in the series on Liver microsome [3]. Further, 600 nM corresponded to half-maximal inhibition on Cytochrome P450 2D6 (IC50). For the same molecule, on Histamine H3 receptor [4], the Ki was 0.251 nM.

For the molecule `CC(C)N1CCc2ccc(OCc3ccccc3)cc2CC1`, at Histamine H3 receptor [4], the Ki is 20 nM.

As for `c1cc2c(cc1OCCN1CCCCC1)CCNCC2`, the inhibition constant Ki on Histamine H3 receptor [4] was 158 nM.

`CN(C)CCCOc1ccc2c(c1)CCNCC2`: on Histamine H3 receptor [4], the Ki was 100 nM.

`Cn1c(=O)ccc2cc(COc3ccc4c(c3)CCN(C3CCC3)CC4)ccc21`: the CLH came to 2.5 mL/min/g with Liver microsome [1] and 3.4 mL/min/g in the series with Liver microsome [3]. This molecule also yielded a 50% inhibitory concentration (IC50) on Cytochrome P450 2D6 of 4200 nM. Also, on Histamine H3 receptor [4], the inhibition constant (Ki) was 0.398 nM.

As for `CC(C)CN1CCc2ccc(OCc3ccccc3)cc2CC1`, the Ki on Histamine H3 receptor [4] is 25.1 nM.

As to `FC1(F)CCN(CCCOc2ccc3c(c2)CCNCC3)CC1`, at Histamine H3 receptor [4], the Ki is over 398 nM.

For the molecule `c1cc2c(cc1OCCCN1CCCCC1)CCN(CC1CC1)CC2`, the values for the Ki on Histamine H1 receptor and at Histamine H3 receptor [4] were 2000 nM and 0.501 nM, respectively.

With `c1cc2c(cc1OCCCN1CCCCC1)CCN2`, the inhibition constant (Ki) on Histamine H3 receptor [4] is 15.8 nM.

On to `c1ccc(COc2ccc3c(c2)CCN(CC2CC2)CC3)cc1`, for which the CLH was over 50 mL/min/g with Liver microsome [1] and 11 mL/min/g in the series with Liver microsome [3]. Also, the inhibition constant Ki at Histamine H1 receptor is 1000 nM; at Histamine H3 receptor [4] it was 10 nM. In addition, the IC50 at Cytochrome P450 2D6 worked out at 1500 nM.

Consider `c1ccc(COc2ccc3c(c2)CCN(C2CC2)CC3)cc1`, for which, at Histamine H3 receptor [4], the Ki was 5.01 nM.

Consider `c1cc2c(cc1OCCCN1CCCCC1)CCN(CC1CCCO1)CC2` (centres undefined), for which the Ki on Histamine H1 receptor was 2000 nM; on Histamine H3 receptor [4], 0.501 nM.

As for `c1ccc(COc2ccc3c(c2)CCNCC3)cc1`, the Ki on Histamine H3 receptor [4] is over 10000 nM.

Turning to `c1cc2c(cc1OCCCN1CCCCC1)CCNC2`, the Ki on Histamine H3 receptor [4] is 2.51 nM.

Regarding `CN1CCc2ccc(OCc3ccccc3)cc2CC1`, the Ki at Histamine H3 receptor [4] was 316 nM.

Take `c1cc2c(cc1OC1CCNCC1)CCN(C1CCC1)CC2`: the CLH in the series with Liver microsome [1] stood at 1.2 mL/min/g; in the series on Liver microsome [3], 0.5 mL/min/g. The Ki at Histamine H3 receptor [4] is 0.316 nM.

Consider `CS(=O)(=O)N1CCC(Oc2ccc3c(c2)CCN(C2CCC2)CC3)CC1`, for which the CLH stood at 2.9 mL/min/g with Liver microsome [1] and 0.5 mL/min/g in the series with Liver microsome [3]. The Activity in the series with Rattus norvegicus [2] was found to be 6%. Besides, on Cytochrome P450 2D6, the IC50 turned out to be 13000 nM. Further, at Histamine H3 receptor [4], the inhibitory constant (Ki) is 0.794 nM.

For the molecule `Cc1cc(C(=O)N2CCC(Oc3ccc4c(c3)CCN(C3CCC3)CC4)CC2)no1`, the CLH in the series on Liver microsome [1] is 3.5 mL/min/g; in the series with Liver microsome [3] it was 1.2 mL/min/g. In addition, the Activity with Rattus norvegicus [2] was found to be 11%. For the same molecule, the IC50 on Cytochrome P450 2D6 was 43000 nM. In addition, the Ki at Histamine H3 receptor [4] was 1.58 nM.

Take `c1ccc(COc2ccc3c(c2)CCN(C2CCCC2)CC3)cc1`: the CLH with Liver microsome [1] was over 50 mL/min/g; with Liver microsome [3] it was 19 mL/min/g. The molecule further displayed an IC50 against Cytochrome P450 2D6 of 600 nM. On Histamine H3 receptor [4], the Ki is 0.794 nM.

As for `O=C(N[C@H]1CCN(Cc2ccc(OCCCN3CCCCC3)cc2)C1)c1ccc2c(c1)OCO2`, the Activity was determined as 78% in the series with Rattus norvegicus [5] and 96% on Albumin. For the same molecule, the Ki is over 2510 nM at Histamine H1 receptor and 0.0251 nM at Histamine H3 receptor [4].

As to `O=C(N1CCOCC1)N1CCC(Oc2ccc3c(c2)CCN(C2CCC2)CC3)CC1`, the clearance in series [6] is 63 mL/min/kg. On hERG (KCNH2), this molecule gave an inhibition at 10 µM of under 30%. In addition, the Kp at 2 h in series [7] came to 1.1. The molecule further yielded a pKa in [8] of 9.2. Also, the CLH amounted to 1.1 mL/min/g with Liver microsome [1] and 0.9 mL/min/g with Liver microsome [3]. Besides, the Activity is reported as 100% with Rattus norvegicus [2] and 49% at Albumin. For the same molecule, in series [9], the half-life is 1.2 h. The concentration at 2 h came out at 470 nM in [10] and 530 nM in series [14]. The Vd in series [11] was 4.6 L/kg. In [12], the logD is 2.2. Further, the results for the Ki at Histamine H3 receptor [13] and at Histamine H3 receptor [4] were 12.6 nM and 1 nM, respectively. Moreover, in the series with Rattus norvegicus [15], it took a dose of 2.2 mg/kg to reach the 50% effect level (ED50).

As to `c1ccc(N2CCc3ccc(OCCCN4CCCCC4)cc3CC2)cc1`, the Ki on Histamine H1 receptor was 1000 nM; at Histamine H3 receptor [4], 10 nM.

Turning to `c1ccc(COc2ccc3c(c2)CCN(C2CCCCC2)CC3)cc1`, the inhibition constant (Ki) on Histamine H3 receptor [4] was 10 nM.

For the molecule `c1cc2c(cc1OCCCN1CCCCC1)CCNCC2`, the results for the Ki at Histamine H1 receptor and at Histamine H3 receptor [4] were 1260 nM and 3.98 nM, respectively.

Consider `CC(C)N1CCC(Oc2ccc3c(c2)CCNCC3)CC1`, for which the values for the Ki at Histamine H1 receptor and on Histamine H3 receptor [4] were over 2510 nM and 2.51 nM, respectively.

Turning to `c1cc2c(cc1OCC1CCNCC1)CCN(C1CCC1)CC2`, the CLH is 0.7 mL/min/g in the series with Liver microsome [1] and 0.9 mL/min/g in the series on Liver microsome [3]. Moreover, the Activity with Rattus norvegicus [2] is given as 44%. For the same molecule, the IC50 on Cytochrome P450 2D6 stood at 19000 nM. Also, on Histamine H3 receptor [4], the inhibition constant (Ki) was 0.501 nM.

With `c1cc2c(cc1OCCCN1CCOCC1)CCNCC2`, at Histamine H3 receptor [4], the Ki is 100 nM.

Take `O=C(c1ccc(OCCCc2cnc[nH]2)cc1)C1CC1` [CIPROXIFAN]: the Activity in the series on Rattus norvegicus [2] worked out at 100%; on Albumin, 80%. For the same molecule, the Ki at Histamine H1 receptor is over 2510 nM.

Regarding `CC(=O)N1CCc2ccc(OCCCN3CCCCC3)cc2CC1`, on Histamine H3 receptor [4], the Ki is 15.8 nM.

As usually defined, the Ki is a dissociation constant, usually derived from enzyme kinetics or from competition with a known ligand. By IC50 is commonly meant the concentration that inhibits the measured activity by half. Read a low IC50 as inhibition by little substance. For orientation: clearance means the volume of plasma or blood freed of the substance per unit of time. For orientation: inhibition means the drop in the measured response relative to a control, in per cent. The low end stands for a response near the control, the high end for a response far below the control. As usually defined, the Kp is the ratio of the level in a tissue or fluid to that in plasma or blood. By pKa is commonly meant the negative logarithm of the acid dissociation constant. Read a high pKa as a weaker acid or stronger base. Broadly, the logD is lipophilicity at a set pH, counting ionised and neutral species. Low readings indicate a more hydrophilic compound, high ones a more lipophilic compound. Usually ED50 stands for the dose that gives a 50% effect, or the effect in half of the subjects.

These data come from ChEMBL document CHEMBL3091427, “The discovery of the benzazepine class of histamine H3 receptor antagonists” (Bioorg Med Chem Lett, 2013).
